In assay [1] the test system is K562-FLUD human promyelocytic leukemia, fludarabin resistant. The assay can be described thus: MTT cytotoxicity assay, K562-FLUD. It is filed as cell-based. The note with it: Homo sapiens, 72 hours, read-out: TCS50. From the text: (§1) One of the parameters used as the basis for colorimetric assays is the metabolic activity of viable cells. For example, a microtiter assay which uses the tetrazolium salt MTT is now widely used to quantitate cell proliferation and cytotoxicity [Hajdúch M, Mihál V, Minarík J, Fáber E, Safárová M, Weigl E, Antálek P.: Cytotechnology, 1996, 19, 243–245]. For instance, this assay is used in drug screening programs and in chemosensitivity testing. Because tetrazolium salts are cleaved only by metabolically active cells, these assays exclusively detect viable cells. In the case of the MTT assay, yellow soluble tetrazolium salt is reduced to a coloured water-insoluble formazan salt. After it is solubilized, the formazan formed can easily and rapidly be quantified in a conventional ELISA plate reader at 570 nm (maximum absorbancy). The quantity of reduced formazan corresponds to the number of vital cells in the culture. […]
(§2) The cell suspensions that were prepared and diluted according to the particular cell type and the expected target cell density (2,500–30,000 cells per well based on cell growth characteristics) were added by pipette (80 μl) into 96/well microtiter plates. […] Usually, test compounds were evaluated at six 4-fold dilutions. […] The tumour cell survival (TCS) was calculated using the following equitation: TCS=(ODdrug exposed well/mean ODcontrol wells)×100%. […]
Background: Tetrazolium assays rely on reduction of a dye to a coloured formazan, in cell work by metabolically active cells.

The test system of assay [2] is Caco-2 human colon cancer. The assay is described as follows: MTT cytotoxicity assay, Caco-2. It is filed as cell-based. Conditions: Homo sapiens, 72 hours, read-out: TCS50.
Excerpt: as §1, §2

In the next assay the test system is B16 mouse melanoma. The assay is described as follows: MTT cytotoxicity assay, B16. It is filed as cell-based. The note with it: Mus musculus, 72 hours, read-out: TCS50.
Excerpt: as §1, §2

The test system of assay [3] is NIH3T3 mouse immortalised fibroblasts. The assay can be described thus: MTT cytotoxicity assay, NIH3T3. It is filed as cell-based. The note with it: Mus musculus, 72 hours, read-out: TCS50.
Excerpt: as §1, §2

The test system of assay [4] is Saos2 human, p53−/−, Rb−/−. The assay can be described thus: MTT cytotoxicity assay, Saos2. It is filed as cell-based. The note with it: Homo sapiens, SAOS-2, 72 hours, read-out: TCS50.
Excerpt: as §1, §2

The subject of assay [5] is K562-ARA-C human promyelocytic leukemia, cytarabin resistant. The assay can be described thus: MTT cytotoxicity assay, K562-ARA-C. It is filed as cell-based. Conditions: Homo sapiens, 72 hours, read-out: TCS50.
Excerpt: as §1, §2

Assay [6] deals with BT549 human breast cancer, p53mut/mut. The assay can be described thus: MTT cytotoxicity assay, BT549. The note with it: Homo sapiens, BT-549, 72 hours, read-out: TCS50. It is filed as cell-based.
Excerpt: as §1, §2

Assay [7] concerns SW620 human colon cancer, metastasis. The assay can be described thus: MTT cytotoxicity assay, SW620. Conditions: Homo sapiens, SW-620, 72 hours, read-out: TCS50. It is filed as cell-based.
Excerpt: as §1, §2

Assay [8] deals with CEM-DNR 1/C2 human T-lymphoblastic leukemia, daunorubicin resistant. The assay is described as follows: MTT cytotoxicity assay, CEM-DNR 1/C2. It is filed as cell-based. Conditions: Homo sapiens, 72 hours, read-out: TCS50.
Excerpt: as §1, §2

The test system of the next assay is U87MG human glioblastoma. The assay is described as follows: MTT cytotoxicity assay, U87MG. It is filed as cell-based. Conditions: Homo sapiens, U-87 MG, 72 hours, read-out: TCS50.
Excerpt: as §1, §2

Assay [9] relates to U2OS human osteosarcoma, p53+/−, Rb+/−. The assay can be described thus: MTT cytotoxicity assay, U2OS. It is filed as cell-based. Conditions: Homo sapiens, 72 hours, read-out: TCS50.
Excerpt: as §1, §2

The subject of assay [10] is K562-GEM human promyelocytic leukemia, gemcitabin resistant. The assay is described as follows: MTT cytotoxicity assay, K562-GEM. Format: cell-based. The note with it: Homo sapiens, 72 hours, read-out: TCS50.
Excerpt: as §1, §2

Assay [11] concerns CEM-DNR bulk human T-lymphoblastic leukemia, daunorubicin resistant. The assay is described as follows: MTT cytotoxicity assay, CEM-DNR bulk. Format: cell-based. Conditions: Homo sapiens, 72 hours, read-out: TCS50.
Excerpt: as §1, §2

Assay [12] concerns HepG2 human hepatocellular carcinoma. The assay is described as follows: MTT cytotoxicity assay, HepG2. It is filed as cell-based. Conditions: Homo sapiens, 72 hours, read-out: TCS50.
Excerpt: as §1, §2

For assay [13], the system named is K562 human promyelocytic leukemia. The assay can be described thus: MTT cytotoxicity assay, K562. The note with it: Homo sapiens, 72 hours, read-out: TCS50. It is filed as cell-based.
Excerpt: as §1, §2

The subject of another assay is human normal lymphocytes. The assay is described as follows: MTT cytotoxicity assay, normal lymphocytes. It is filed as cell-based. The note with it: Lymphocyte, 72 hours, read-out: TCS50.
Excerpt: as §1, §2

For assay [14], the system named is CEM-VCR 3/D5 human T-lymphoblastic leukemia, vincristin resistant. The assay can be described thus: MTT cytotoxicity assay, CEM-VCR 3/D5. Format: cell-based. The note with it: Homo sapiens, 72 hours, read-out: TCS50.
Excerpt: as §1, §2

The test system of a further assay is MEL-3 human melanoma. The assay is described as follows: MTT cytotoxicity assay, MEL-3. It is filed as cell-based. Conditions: Homo sapiens, 72 hours, read-out: TCS50.
Excerpt: as §1, §2

Assay [15] relates to B16F mouse melanoma, metastatic. The assay can be described thus: MTT cytotoxicity assay, B16F. It is filed as cell-based. The note with it: Mus musculus, 72 hours, read-out: TCS50.
Excerpt: as §1, §2

The subject of assay [16] is CEM-VCR 1/F3 human T-lymphoblastic leukemia, vincristin resistant. The assay is described as follows: MTT cytotoxicity assay, CEM-VCR 1/F3. Format: cell-based. The note with it: Homo sapiens, 72 hours, read-out: TCS50.
Excerpt: as §1, §2

The test system of the next assay is HT-29 human colon cancer. The assay is described as follows: MTT cytotoxicity assay, HT-29. It is filed as cell-based. The note with it: Homo sapiens, 72 hours, read-out: TCS50.
Excerpt: as §1, §2

In assay [17] the test system is CEM-VCR bulk human T-lymphoblastic leukemia, vincristin resistant. The assay is described as follows: MTT cytotoxicity assay, CEM-VCR bulk. It is filed as cell-based. Conditions: Homo sapiens, 72 hours, read-out: TCS50.
Excerpt: as §1, §2

Assay [18] concerns CEM human T-lymphoblastic leukemia. The assay is described as follows: MTT cytotoxicity screening assay, CEM. It is filed as cell-based. From the text: One of the parameters used as the basis for colorimetric assays is the metabolic activity of viable cells. For example, a microtiter assay which uses the tetrazolium salt MTT is now widely used to quantitate cell proliferation and cytotoxicity [Hajdúch M, Mihál V, Minarík J, Fáber E, Safárová M, Weigl E, Antálek P.: Cytotechnology, 1996, 19, 243–245]. For instance, this assay is used in drug screening programs and in chemosensitivity testing. Because tetrazolium salts are cleaved only by metabolically active cells, these assays exclusively detect viable cells. In the case of the MTT assay, yellow soluble tetrazolium salt is reduced to a coloured water-insoluble formazan salt. After it is solubilized, the formazan formed can easily and rapidly be quantified in a conventional ELISA plate reader at 570 nm (maximum absorbancy). The quantity of reduced formazan corresponds to the number of vital cells in the culture.
Human T-lymphoblastic leukaemia cell line CEM was used for routine screening of these compounds. […] The cells were maintained in Nunc/Corning 80 cm^2 plastic tissue culture flasks and cultured in cell culture medium (DMEM with 5 g/l glucose, 2 mM glutamine, 100 U/ml penicillin, 100 μg/ml streptomycin, 10% foetal calf serum and sodium bicarbonate). Individual compounds were dissolved in 10% diiethylsulfoxide/saline, pH 8.0.
The cell suspensions that were prepared and diluted according to the particular cell type and the expected target cell density (2,500–30,000 cells per well based on cell growth characteristics) were added by pipette (80 μl) into 96/well microtiter plates. Inoculates were allowed a pre-incubation period of 24 hours at 37° C. and 5% CO2 for stabilisation. Four-fold dilutions of the intended test concentration were added at time zero in 20 μl aliquots to the microtiter plate wells. Usually, test compounds were evaluated at six 4-fold dilutions. In routine testing, the highest well concentration was 250 μM, but it may differ, depending on the agent. All drug concentrations were examined in duplicate. Incubations of cells with the test compounds lasted for 72 hours at 37° C., in 5% CO2 atmosphere and 100% humidity. At the end of the incubation period, the cells were assayed by using the MTT assay. […] After this incubation period, formazan was solubilized by the addition of 100 μl/well of 10% SDS in water (pH=5.5) followed by further incubation at 37° C. overnight The optical density (OD) was measured at 540 nm with the Labsystem iEMS Reader MF(UK). The tumour cell survival (TCS) was calculated using the following equitation: TCS=(ODdrug exposed well/mean ODcontrol wells)×100%. The TCS50 value, the drug concentration lethal to 50% of the tumour cells, was calculated from the obtained dose response curves. […]

For assay [19], the system named is K562-CdA human promyelocytic leukemia, cladrubin resistant. The assay is described as follows: MTT cytotoxicity assay, K562-CdA. Format: cell-based. The note with it: Homo sapiens, 72 hours, read-out: TCS50.
Excerpt: as §1, §2

A further assay deals with H3 histone (Lys9). The assay can be described thus: Histone acetylation, Western blot in CEM cells. It is filed as cell-based, human. As for the experimental part:
CEM cells were cultured in Dulbeco's modified essential medium with 4.5 g dextrose/l, 10% of foetal calf serum, 2 mM glutamine, 100 U/ml penicillin and 100 μg/ml streptomycin with/without the indicated concentrations of HDAC inhibitor TSA or I.3. At selected time points, cells were harvested, washed in ice cold Hank's balanced salt solution and solubilized on ice using SDS-PAGE sample buffer containing protease and phosphatase inhibitors (10 μg/ml of leupeptin, 10 μg/ml of aprotinin, 10 μg/ml of soybean trypsin inhibitor, 100 μmol of benzamide, 1 mM of sodium vanadate, 1 mM of NaF, 1 mM of phenylphosphate) and boiled immediately.
Total cellular proteins (100 μg/well) were separated on SDS-PAGE electrophoresis, blotted on polyvinyldifluoride membranes and acetylated histone was detected using a anti-acetyl(Lys9)-histone H3 rabbit polyclonal antibody (Cell Signalling Technology, Beverly, Mass.; Cat# 9671L) and visualized by chemilumniuscence (ECL-Western Blotting System, Amersham). Details of the Western blot technique are described in Ausubel, F. M., Brent, R, Kingston, R. E., Moore, D. D., Seidman, J. G., Smith, J. A., Struhl, K. (Eds): Short Protocols in Molecular. Biology, 2nd edition, John Wiley & Sons, New York, Chichester, Brisbane, Toronto, Singapore, 1992, page 10–33–10–35.

In assay [20] the test system is human SK-N-AS neuroblastoma. The assay can be described thus: In vivo activity in xenotransplanted human neuroblastoma. Also on record: species or system CD-1/Ctrl-1 nu/nu nude female mice. Conditions: cisplatin 4 mg/kg subcutaneously 1×D1; SK-N-AS in nude mice (FIG. 2). The procedure: Human neuroblastoma SK-N-AS cell line was obtained from ATTC. The line was cultured in Dulbeco's modified essential medium with 4.5 g dextrose/l, 10% of foetal calf serum, 2 mM glutamine, 100 U/ml penicillin and […] streptomycin. For transplantation purposes, only the cells in log phase were used.
CD-1/Ctrl-1 nu/nu nude female mice, 8 weeks old, 18–22 g weight were used in this study (IffaCredo, France). Animals were inoculated with 5.10^6 tumour cells subcutaneously into right inquinal region. Following transplantation, tumor growth was measured in both the control/vehicle and the treated groups using calipers. Tumor volume (TV) was calculated as follows: TV=(a^2×b)/2, where a is width and b is length The statistical significance was evaluated using a […].
Cisplatin (Platidiam 10 inj, sicc., Lachema, Czech Republic) was used as a control drug in this experiment. It was diluted in apyrogenic water and applied to animals in a final volume of 0.18 ml subcutaneously at day 1.
I.3 was synthesised as described above. It was suspended at 10 mg/ml in 5% dextrose and pH was adjusted to 8.0 with sodium hydroxide. vehicle: 5% dextrose with pH adjusted to 8.0 with sodium hydroxide. […]

Where two headings read alike, the source gives them in different places.

For the molecule `C=C(C)[C@@H]1CC[C@]2(C(=O)O)CC[C@]3(C)[C@H](CC[C@@H]4[C@@]5(C)CC[C@H](O)C(C)(C)[C@@H]5CC[C@]43C)[C@@H]12` [Betulinic acid, betulinic acid, reference compound], the IC50 in [1] came to 250 µM; in [2], 20 µM; in the assay with B16 mouse melanoma, 36 µM; in [3] it was 250 µM; in [4], 250 µM; in assay [5], 250 µM. Besides, the IC50 in [6] came to 250 µM; in assay [7], 250 µM; in assay [8], 250 µM; in the assay on U87MG human glioblastoma, 250 µM; in assay [9], 250 µM; in assay [10] it was 101 µM. For the same molecule, the IC50 in assay [11] turned out to be 250 µM; in [12], 3.6 µM; in [13], 250 µM; in the assay on human normal lymphocytes, 250 µM; in assay [14] it was 24 µM; in the assay on MEL-3 human melanoma it was 2.7 µM. Further, the IC50 in assay [15] was 4.6 µM; in [16], 19 µM; in the assay on HT-29 human colon cancer, 250 µM; in [17] it was 69 µM; in [18] (Homo sapiens, CEM, MTT assay, 72 hours, read-out: TCS50), 250 µM; in assay [19] it was 250 µM.

For the molecule `CC(/C=C/C(=O)NO)=C\[C@@H](C)C(=O)c1ccc(N(C)C)cc1` [TSA, trichostatin A, reference compound], in the assay on H3 histone (Lys9) (0.24 μM (IC50)), the “increase of histone acetylation” value was “no significant ability to increase histone acetylation”. Moreover, the “acetylation of H3 histone in Lys9 position” value in the assay on H3 histone (Lys9) (Western blot (FIG. 5)) is “rapidly acetylated”. The IC50 in assay [18] (CEM cells, as stated in the histone acetylation study, read-out: IC50) is 0.24 µM.

Take `N.N.[Cl][Pt][Cl]` [cisplatin, Cisplatin, reference compound]: the “tumor growth (tumor volume)” value in assay [20] is “no significant activity”.

Values taken from patent publication US7041701B2, “Triterpenoid derivatives” (Univerzita Palackeho V Olomouci, priority 2000, dated 2006).
